# Laboratory results: patent US20240327421A1 (Marquette University, priority 2017, published 2024)
# Tests used:
# CYP1A2 = target: T1, CYP1A2 (Homo sapiens, UniProt P05177); assay: P450-Glo CYP450 inhibition, CYP1A2; type: in vitro ADME; settings: highest concentration 62.6 μM; listed as ISP358-2
# T1 construct: purchased Promega Corporation (Madison, WI)
# T1 sequence (P05177 1-516): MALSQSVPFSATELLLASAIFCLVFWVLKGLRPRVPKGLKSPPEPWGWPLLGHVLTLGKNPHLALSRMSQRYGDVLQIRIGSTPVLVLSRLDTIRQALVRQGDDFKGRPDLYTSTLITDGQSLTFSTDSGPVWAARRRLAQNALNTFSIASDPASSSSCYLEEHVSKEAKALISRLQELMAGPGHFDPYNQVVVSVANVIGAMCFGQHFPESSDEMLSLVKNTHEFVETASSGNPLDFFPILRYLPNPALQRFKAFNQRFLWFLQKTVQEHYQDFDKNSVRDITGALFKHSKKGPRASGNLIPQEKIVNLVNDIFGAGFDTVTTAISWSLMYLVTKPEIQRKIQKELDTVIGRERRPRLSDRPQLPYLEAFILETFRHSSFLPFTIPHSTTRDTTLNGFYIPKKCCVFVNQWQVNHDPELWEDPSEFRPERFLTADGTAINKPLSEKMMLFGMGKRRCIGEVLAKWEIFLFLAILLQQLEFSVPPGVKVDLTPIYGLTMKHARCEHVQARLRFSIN
# Procedure: (§1) In Vitro Druggability Assays-CYP450 Binding, hERG & Nephelometry. The P450-Glo™ Screening System from Promega Corporation (Madison, WI) was used to measure CYP450 (cytochrome P450) inhibition, as described in the kit instructions. Assays were run in 96-well white plates (Corning® 3912), and luminescence was measured on a SpectraMax M5 instrument (FIG. 6). The luminescence signal is proportional to the amount of luciferin product formed by the CYP reaction. Compounds were prepared in DMSO, then an eight-step 1:2 dilution series was made in DMSO. […] After adding the relevant Cytochrome P450 enzyme, the plate was incubated at 37° C. for 10 minutes to allow components to come to temperature. Next, the NADPH regeneration system was added to activate the reaction on a luminogenic P450-GloTM substrate, and incubated at 37° C. for 10-30 min, according to kit instructions for each CYP enzyme. The enzyme reaction was stopped by the addition of Luciferin Detection Reagent and luminescence of the plate was read in a Spectramax M5 (Molecular Devices) after a 20 min incubation at room temperature. Data were normalized to positive controls (α-naphthoflavone for CYP1A2, sulfaphenazole for CYP2C9, quinidine for CYP2D6, and ketoconazole for CYP3A4). Data analysis was with Prism software, as described above.
# CYP3A4 = target: T2, CYP3A4 (Homo sapiens, UniProt P08684); assay: P450-Glo CYP450 inhibition, CYP3A4; type: in vitro ADME; settings: highest concentration 62.6 μM
# T2 construct: purchased Promega Corporation (Madison, WI)
# Procedure: as §1
# T2 sequence (P08684 whole entry): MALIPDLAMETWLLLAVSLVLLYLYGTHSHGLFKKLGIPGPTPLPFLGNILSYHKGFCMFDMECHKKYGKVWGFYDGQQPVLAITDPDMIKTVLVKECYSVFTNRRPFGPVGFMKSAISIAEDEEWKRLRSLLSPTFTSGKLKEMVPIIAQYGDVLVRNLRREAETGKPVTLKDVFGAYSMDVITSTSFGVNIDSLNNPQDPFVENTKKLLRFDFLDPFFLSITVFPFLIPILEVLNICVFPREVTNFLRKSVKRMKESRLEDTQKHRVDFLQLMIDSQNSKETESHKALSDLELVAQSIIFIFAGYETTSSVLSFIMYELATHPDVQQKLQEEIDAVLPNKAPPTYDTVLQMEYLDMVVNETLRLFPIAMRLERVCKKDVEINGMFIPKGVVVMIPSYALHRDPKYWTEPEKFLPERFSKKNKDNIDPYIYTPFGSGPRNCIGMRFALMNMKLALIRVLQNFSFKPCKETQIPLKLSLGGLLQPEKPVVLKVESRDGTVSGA
structure (smiles),measurement,setting,value
OC[C@H]1CC[C@H](c2ccc(O)cc2)CC1 [Compound 16],CYP1A2 inhibition,CYP1A2,no significant inhibition
same,CYP3A4 inhibition,CYP3A4,no significant inhibition
same,IC50,CYP3A4,89 ± 18 µM
